For eight compounds, IC50, Selectivity and GI50 results are on record in ChEMBL document CHEMBL1131927, “The synthesis and evaluation of temperature sensitive tubulin toxins” (Bioorg Med Chem Lett, 1999).

Holding throughout (assay type): functional
Assay [1] deals with T1, Tubulin (Bos taurus, UniProt Q6B856+Q862L2+Q862F3). Nature of the assay: Inhibition of tubulin polymerization activity using homogenous bovine brain tubulin at 45 degree C.
Assay [2] deals with T1, Tubulin. Nature of the assay: Inhibition of tubulin polymerization activity using homogenous bovine brain tubulin at 30 degree C.
Assay [3] deals with T1, Tubulin. Nature of the assay: Inhibition of tubulin polymerization activity using homogenous bovine brain tubulin at 37 degree C.
The nature of assay [4]: Selectivity ratio expressed as temperature dependence at 45 Degree C to that of 30 Degree C in bovine brain tubulin.
Another assay deals with PC-3. The assay can be described thus: In vitro growth inhibitory activity against human neoplastic PC3 cell line.
The subject of the next assay is MCF7. Nature of the assay: In vitro growth inhibitory activity against human neoplastic MCF-7 cell line.
For the next assay, the system named is NCI-H520. The assay can be described thus: In vitro growth inhibitory activity against human neoplastic NCI-H520 cell line.

Bounds are passed on as bounds.

Consider `CCOc1cccc(C2CCc3cc(OC)c(OC)c(OC)c32)cc1=O` (centres undefined), for which the IC50 at Tubulin [1] stood at 18 µM; against Tubulin [2], 26.2 µM; on Tubulin [3], 18.2 µM. Moreover, the Selectivity in assay [4] came to 1.7.

Take `CNc1cccc(C2CCc3cc(OC)c(OC)c(OC)c32)cc1=O` (centres undefined): the half-maximal inhibitory concentration (IC50) against Tubulin [2] is 30.6 µM; at Tubulin [3], 23.5 µM. For the same compound, the Selectivity in assay [4] amounted to 1.3.

As to `COc1cc2c(c(OC)c1OC)C(c1cccc(OC)c(=O)c1)CC2` (centres undefined), the results for the GI50 in the assay on PC-3, in the assay with MCF7 and in the assay on NCI-H520 were 5.2 µM, 75 µM and 5.4 µM, respectively. The IC50 is 19 µM against Tubulin [1], 108 µM at Tubulin [2] and 19 µM against Tubulin [3]. For the same compound, in assay [4], the Selectivity came to 5.7.

On to `COc1cc2c(c(OC)c1OC)-c1ccc(OC)c(=O)cc1[C@@H](NC(C)=O)CC2` [COLCHICINE], for which the concentration for 50% growth inhibition (GI50) in the assay with PC-3, in the assay on MCF7 and with NCI-H520 was below 0.05 µM throughout.

For the compound `COc1ccc(C2CCc3cc(OC)c(OC)c(OC)c32)cc1O` (centres undefined), the 50% growth inhibitory concentration (GI50) with PC-3 worked out at 0.5 µM; with MCF7 it was 10 µM; in the assay on NCI-H520, 0.1 µM. Moreover, the IC50 at Tubulin [1] came to 10.9 µM; on Tubulin [2] it was 11.8 µM; on Tubulin [3] it was 10.9 µM. Also, the Selectivity in assay [4] came out at 1.1.

Regarding `COc1cc(C2CCc3cc(OC)c(OC)c(OC)c32)ccc1O` (centres undefined), the GI50 in the assay with PC-3, with MCF7 and in the assay with NCI-H520 was above 100 µM each time. The IC50 against Tubulin [1], against Tubulin [2] and on Tubulin [3] was 46.4 µM in each case. Moreover, the Selectivity in assay [4] amounted to 0.

In the case of `COc1cc2c(c(OC)c1OC)C(c1cccc(N)c(=O)c1)CC2` (centres undefined), the results for the concentration for half-maximal inhibition (IC50) at Tubulin [1], against Tubulin [2] and against Tubulin [3] were 23.6 µM, 29.5 µM and 23.6 µM, respectively. In addition, in assay [4], the Selectivity is 1.25.

With `COc1cc2c(c(OC)c1OC)C(c1cccc(Br)c(=O)c1)CC2` (centres undefined), the IC50 on Tubulin [1] worked out at 22 µM; against Tubulin [2], 32 µM; on Tubulin [3], 28.1 µM. Also, in assay [4], the Selectivity worked out at 1.45.

What is called IC50 is the point on the concentration scale where inhibition reaches its midpoint. A higher IC50 goes with weaker potency in that assay. What is called GI50 is the concentration at which growth is held to half of that of the control. A higher GI50 goes with lower sensitivity of the cells.
